Measured values reported in US20250009742A1 (priority 2021, published 2025).
Read-outs that look alike come from different tables or passages of the source.

Tests used:
[1] = target: Protein (Hepatitis B virus genotype D subtype ayw, UniProt P03146); experiment: Protein inhibition rate / EC50 (Table 1, no method described); format: biochemical
[2] = tested on: intracellular HBV DNA; experiment: Real-time PCR for intracellular HBV DNA in HepAD38 cells; format: cell-based; conditions: 65 hours treatment
[3] = tested on: HepAD38 cells; experiment: Cell viability assay (EZ-Cytox), cytotoxicity; format: cell-based; conditions: 65 hours
Procedure: (§1) HepAD38 cells were cultured for 2 days in Dulbecco's Modified Eagle's medium (Welgene, LM001-05) supplemented with 10% FBS without tetracycline. […] After 65 hours of treatment, viability was measured using EZ-Cytox cell viability assay kit (Daeil Lab Service) according to the manufacturer's instructions. The absorbance was measured at 450 nm using a spectrophotometer (Spark, Tecan).

[4] = Cell viability assay (EZ-Cytox), cytotoxicity; format: cell-based; conditions: human, HepAD38 cells; for viability at 65 h, 100 µM: read-out: Cytotoxicity % Livability (@100 μM)
Procedure: as §1

[5] = Hepatitis B virus, HePAD38, 65 h

Sequence of Protein (P03146 whole entry): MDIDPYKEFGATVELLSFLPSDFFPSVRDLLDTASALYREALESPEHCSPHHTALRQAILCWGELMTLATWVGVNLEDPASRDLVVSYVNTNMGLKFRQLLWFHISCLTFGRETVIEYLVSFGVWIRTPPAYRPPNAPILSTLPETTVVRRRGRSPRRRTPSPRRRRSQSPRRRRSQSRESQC

For “1-((4-bromo-1H-pyrazol-3-yl)methyl)-3-(3-chloro-4-fluorophenyl)-1-(4-methoxyphenyl)urea [Example 61]”, the EC50 [1] was 4.4 µM, the “Protein % inhibition rate (@30 μM)” value ([1]; @30 μM) was 81.8% and the IC50 ([2]; read-out: IC50) was 0.502 µM. For the same compound, the CC50 [3] was 98.8 µM and the “Cytotoxicity % Livability (@100 μM)” value [3] was 40.8%.

With “3-(3-chloro-4-fluorophenyl)-1-((1-(hydroxymethyl)-5-(trifluoromethyl)-1H-pyrazol-3-yl)methyl)-1-(6-methoxypyridin-3-yl)urea [Example 79]” the IC50 ([2]; read-out: IC50) was 0.019 µM and the “Cytotoxicity % Livability (@100 μM)” value [3] was 18.5%.

For COc1ccc(N(Cc2n[nH]c3c2C2CCC3C2)C(=O)Nc2ccc(F)c(Cl)c2)cn1 (stereo not drawn) [Example 51, 3-(3-chloro-4-fluorophenyl)-1-(6-methoxypyridin-3-yl)-1-((4,5,6,7-tetrahydro-1H-4,7-methanoindazol-3-yl)methyl)urea], the EC50 [1] was 3.4 µM, the inhibition at 30 µM [1] was 87.1% and the IC50 [2, 5] was 0.035 µM. The CC50 at 65 h [4] was greater than 50 µM and the viability at 65 h, 100 µM [4] was 36.7%.

For COc1ccc(N(Cc2n[nH]c3c2CC(C(=O)O)CC3)C(=O)Nc2ccc(F)c(Cl)c2)cn1 (stereo not drawn) [Example 52, 3-((3-(3-chloro-4-fluorophenyl)-1-(6-methoxypyridin-3-yl)ureido)methyl)-4,5,6,7-tetrahydro-1H-indazole-5-carboxylic acid], the inhibition at 30 µM [1] was 4%, the IC50 [2, 5] was greater than 1.1 µM and the CC50 at 65 h [4] was greater than 100 µM. For the same compound, the viability at 65 h, 100 µM [4] was 100%.

COC(=O)C1CCc2[nH]nc(CN(C(=O)Nc3ccc(F)c(Cl)c3)c3ccc(OC)nc3)c2C1 (stereo not drawn) [Example 53, methyl 3-((3-(3-chloro-4-fluorophenyl)-1-(6-methoxypyridin-3-yl)ureido)methyl)-4,5,6,7-tetrahydro-1H-indazole-5-carboxylate] gave an inhibition at 30 µM [1] of 20.1%, an IC50 [2, 5] greater than 1.1 µM and a CC50 at 65 h [4] greater than 100 µM. For the same compound, the viability at 65 h, 100 µM [4] was 58.9%.

With COc1cc(N(Cc2n[nH]c3c2CCCC3)C(=O)Nc2ccc(F)c(Cl)c2)ccn1 [Example 54, 3-(3-chloro-4-fluorophenyl)-1-(2-methoxypyridin-4-yl)-1-((4,5,6,7-tetrahydro-1H-indazol-3-yl)methyl)urea] the EC50 [1] was 3.5 µM, the inhibition at 30 µM [1] was 84% and the IC50 [2, 5] was 0.013 µM. The CC50 at 65 h [4] was 40.6 µM and the viability at 65 h, 100 µM [4] was 17.4%.

With COc1ccc(N(Cc2n[nH]cc2C)C(=O)Nc2ccc(F)c(Cl)c2)cn1 [Example 56, 3-(3-chloro-4-fluorophenyl)-1-(6-methoxypyridin-3-yl)-1-((4-methyl-1H-pyrazol-3-yl)methyl)urea] the EC50 [1] was 6.6 µM, the inhibition at 30 µM [1] was 86.4% and the IC50 [2, 5] was 0.4 µM. The CC50 at 65 h [4] was greater than 100 µM and the viability at 65 h, 100 µM [4] was 98.2%.

Work on COc1ccc(N(Cc2n[nH]c(C)c2C)C(=O)Nc2ccc(F)c(Cl)c2)cn1 [Example 57, 3-(3-chloro-4-fluorophenyl)-1-((4,5-dimethyl-1H-pyrazol-3-yl)methyl)-1-(6-methoxypyridin-3-yl)urea] yielded an EC50 [1] of 2 µM, an inhibition at 30 µM [1] of 96.2% and an IC50 [2, 5] of 0.023 µM. For the same compound, the CC50 at 65 h [4] was greater than 100 µM and the viability at 65 h, 100 µM [4] was 93.2%.

In the case of COc1ccc(N(Cc2cc(C(C)C)[nH]n2)C(=O)Nc2ccc(F)c(Cl)c2)cn1 [Example 58, 3-(3-chloro-4-fluorophenyl)-1-((5-isopropyl-1H-pyrazol-3-yl)methyl)-1-(6-methoxypyridin-3-yl)urea], the EC50 [1] is reported as 5 µM, the inhibition at 30 µM [1] is reported as 93.1% and the IC50 [2, 5] is reported as 0.16 µM. For the same compound, the CC50 at 65 h [4] was greater than 100 µM and the viability at 65 h, 100 µM [4] was 92.7%.

COc1ccc(N(Cc2n[nH]c3c2CCC3C)C(=O)Nc2ccc(F)c(Cl)c2)cn1 (stereo not drawn) [Example 59, 3-(3-chloro-4-fluorophenyl)-1-(6-methoxypyridin-3-yl)-1-((6-methyl-1,4,5,6-tetrahydrocyclopenta[c]pyrazol-3-yl)methyl)urea] showed an EC50 [1] of 4 µM, an inhibition at 30 µM [1] of 94.9% and an IC50 [2, 5] of 0.013 µM. It also gave a CC50 at 65 h [4] greater than 100 µM and a viability at 65 h, 100 µM [4] of 91.2%.

Compound CCc1cc(CN(C(=O)Nc2ccc(F)c(Cl)c2)c2ccc(OC)nc2)n[nH]1 [Example 60, 3-(3-chloro-4-fluorophenyl)-1-((5-ethyl-1H-pyrazol-3-yl)methyl)-1-(6-methoxypyridin-3-yl)urea] has an EC50 [1] of 3 µM, an inhibition at 30 µM [1] of 94.7% and an IC50 [2, 5] of 0.11 µM. The CC50 at 65 h [4] was greater than 100 µM and the viability at 65 h, 100 µM [4] was 76%.

COc1ccc(N(Cc2n[nH]c3c2CC(C(F)(F)F)CC3)C(=O)Nc2ccc(F)c(Cl)c2)cn1 (stereo not drawn) [Example 62, 3-(3-chloro-4-fluorophenyl)-1-(6-methoxypyridin-3-yl)-1-((5-(trifluoromethyl)-4,5,6,7-tetrahydro-1H-indazol-3-yl)methyl)urea] gave an EC50 [1] of 6.9 µM, an inhibition at 30 µM [1] of 100% and an IC50 [2, 5] of 0.2 µM. It also gave a CC50 at 65 h [4] of 86.7 µM and a viability at 65 h, 100 µM [4] of 6.5%.

Compound COc1ccc(N(Cc2n[nH]c3c2CCCO3)C(=O)Nc2ccc(F)c(Cl)c2)cn1 [Example 63, 3-(3-chloro-4-fluorophenyl)-1-(6-methoxypyridin-3-yl)-1-((1,4,5,6-tetrahydropyrano[2,3-c]pyrazol-3-yl)methyl)urea] has an EC50 [1] of 2.6 µM, an inhibition at 30 µM [1] of 90.5% and an IC50 [2, 5] of 0.014 µM. The CC50 at 65 h [4] was greater than 100 µM and the viability at 65 h, 100 µM [4] was 94.5%.

In the case of COc1ccc(N(Cc2cc(OC)[nH]n2)C(=O)Nc2ccc(F)c(Cl)c2)cn1 [Example 64, 3-(3-chloro-4-fluorophenyl)-1-((5-methoxy-1H-pyrazol-3-yl)methyl)-1-(6-methoxypyridin-3-yl)urea], the EC50 [1] is reported as 5.8 µM, the inhibition at 30 µM [1] is reported as 91.1% and the IC50 [2, 5] is reported as 0.18 µM. It also gave a CC50 at 65 h [4] greater than 100 µM and a viability at 65 h, 100 µM [4] of 100%.

For Cn1cc(N(Cc2n[nH]c3c2CCC3)C(=O)Nc2ccc(F)c(Cl)c2)ccc1=O [Example 65, 3-(3-chloro-4-fluorophenyl)-1-(1-methyl-6-oxo-1,6-dihydropyridin-3-yl)-1-((1,4,5,6-tetrahydrocyclopenta[c]pyrazol-3-yl)methyl)urea], the EC50 [1] was greater than 30 µM, the inhibition at 30 µM [1] was 53.5% and the IC50 [2, 5] was greater than 1.1 µM. The CC50 at 65 h [4] was greater than 100 µM and the viability at 65 h, 100 µM [4] was 112%.

For COc1ncc(N(Cc2n[nH]c(C(F)F)c2Br)C(=O)Nc2ccc(F)c(Cl)c2)cn1 [Example 81, 1-((4-bromo-5-(difluoromethyl)-1H-pyrazol-3-yl)methyl)-3-(3-chloro-4-fluorophenyl)-1-(2-methoxypyrimidin-5-yl)urea], the IC50 [2] was 0.0145 µM, the CC50 [3] was greater than 100 µM and the “Cytotoxicity % Livability (@100 μM)” value [3] was 76.0%.

For COc1ncc(N(Cc2n[nH]c(C(F)F)c2Br)C(=O)Nc2ccc(F)c(Cl)c2)cn1 [Example 98, 1-((4-bromo-5-(difluoromethyl)-1H-pyrazol-3-yl)methyl)-3-(3-chloro-4-fluorophenyl)-1-(2-methoxypyrimidin-5-yl)urea], the IC50 [2, 5] was 0.018 µM, the “Cytotoxicity % Livability (@100 μM)” value [3] was 30.1% and the CC50 at 65 h [4] was greater than 66 µM.

With O=C(Nc1ccc(F)c(Cl)c1)N(Cc1n[nH]c2c1CCC2)c1ccc(O)cc1 [Example 114, 3-(3-chloro-4-fluorophenyl)-1-(4-hydroxyphenyl)-1-((1,4,5,6-tetrahydrocyclopenta[c]pyrazol-3-yl)methyl)urea] the EC50 [1] was 1.6 µM, the inhibition at 30 µM [1] was 74.6% and the IC50 [2, 5] was 0.014 µM. For the same compound, the CC50 at 65 h [4] was 54.5 µM and the viability at 65 h, 100 µM [4] was 7.9%.

Work on COc1ccc(N(Cc2n[nH]c3c2CCCC3)C(=O)Nc2ccc(F)c(Cl)c2)cc1OC [Example 116, 3-(3-chloro-4-fluorophenyl)-1-(3,4-dimethoxyphenyl)-1-((4,5,6,7-tetrahydro-1H-indazol-3-yl)methyl)urea] yielded an inhibition at 30 µM [1] of 69.5%, an IC50 [2, 5] greater than 1.1 µM and a CC50 at 65 h [4] greater than 100 µM. The viability at 65 h, 100 µM [4] was 104%.

Work on COc1cc(OC)cc(N(Cc2n[nH]c3c2CCCC3)C(=O)Nc2ccc(F)c(Cl)c2)c1 [Example 117, 3-(3-chloro-4-fluorophenyl)-1-(3,5-dimethoxyphenyl)-1-((4,5,6,7-tetrahydro-1H-indazol-3-yl)methyl)urea] yielded an inhibition at 30 µM [1] of 7%, an IC50 [2, 5] greater than 1.1 µM and a CC50 at 65 h [4] greater than 33 µM. For the same compound, the viability at 65 h, 100 µM [4] was 3.2%.

Work on O=C(O)c1ccc(N(Cc2n[nH]c3c2CCCC3)C(=O)Nc2ccc(F)c(Cl)c2)cc1 [Example 131, 4-(3-(3-chloro-4-fluorophenyl)-1-((4,5,6,7-tetrahydro-1H-indazol-3-yl)methyl)ureido)benzoic acid] yielded an EC50 [1] of 3.8 µM, an inhibition at 30 µM [1] of 94.7% and an IC50 [2, 5] greater than 1.1 µM. For the same compound, the CC50 at 65 h [4] was greater than 100 µM and the viability at 65 h, 100 µM [4] was 100%.

With O=C(Nc1ccc(F)c(Cl)c1)N(Cc1n[nH]c2c1CCCC2)c1ccon1 [Example 132, 3-(3-chloro-4-fluorophenyl)-1-(isoxazol-3-yl)-1-((4,5,6,7-tetrahydro-1H-indazol-3-yl)methyl)urea] the EC50 [1] was 5.3 µM, the inhibition at 30 µM [1] was 86.9% and the IC50 [2, 5] was 0.055 µM. The CC50 at 65 h [4] was greater than 100 µM and the viability at 65 h, 100 µM [4] was 81.9%.

Compound O=C(Nc1ccc(F)c(Cl)c1)N(Cc1n[nH]c2c1CCCC2)c1nncs1 [Example 133, 3-(3-chloro-4-fluorophenyl)-1-((4,5,6,7-tetrahydro-1H-indazol-3-yl)methyl)-1-(1,3,4-thiadiazol-2-yl)urea] has an inhibition at 30 µM [1] of 5%, an IC50 [2, 5] of 0.11 µM and a CC50 at 65 h [4] of 74.2 µM. The viability at 65 h, 100 µM [4] was 4.3%.

In the case of O=C(Nc1ccc(F)c(Cl)c1)N(Cc1n[nH]c2c1CCC2)c1ccon1 [Example 134, 3-(3-chloro-4-fluorophenyl)-1-(isoxazol-3-yl)-1-((1,4,5,6-tetrahydrocyclopenta[c]pyrazol-3-yl)methyl)urea], the EC50 [1] is reported as 3.5 µM, the inhibition at 30 µM [1] is reported as 84.5% and the IC50 [2, 5] is reported as 0.069 µM. For the same compound, the CC50 at 65 h [4] was 70.3 µM and the viability at 65 h, 100 µM [4] was 6.5%.
